Assay results reported in patent US20240118281A1, “ANTICANCER COMPOUNDS AND USES THEREOF” (University of Florida Research Foundation, Incorporated, priority 2021, published 2024).

Tested on: ERAP1
Assay: ERAP1 retention/secretion in MDA-MB-468 cells, immunoblot
Format: cell-based
Settings: MDA-MB-468 cells
Excerpt: The BT20, BT474, BT549, MCF7, MDA-MB-231, MDA-MB-436, MDA-MB-468, HCC1143, HCC1500, HCC1569, HCC1937, HCC1954, Hs578t, and T47D cells lines were purchased from American Type Culture Collection (ATCC) (Manassas, VA). The HCI-001 cell line was derived from an ER-/PR-/HER2- patient-derived xenograft originally isolated from a patient as described previously (DeRose Y S, et al. Nat Med 2011; 17: 1514-1520). The HCI-001/LVM2 model was derived from the HCI-001 cell line by performing two rounds of selection for liver metastasis, as described previously (Wang M, et al. Cell Death Discovery 2019; 5: 153). Cell lines were grown in Dulbecco's Modified Eagle's Medium (GE Healthcare Life Sciences, Logan, UT) containing 10% fetal bovine serum (10% FBS—DMEM) in a humidified incubator with 5% CO2 at 37° C. Cell lysates were prepared as described previously (Law B K, et al. Mol Cell Biol. 2002; 22: 8184-8198). Immunoblot analysis was performed utilizing the following antibodies purchased from Cell Signaling Technology (Beverly, MA) [Akt, #4691; P-Akt[T308], #13038; ATF4, #11815; CHOP, #2895; Cleaved Caspase 8, #9496; DR4, #42533; DR5, #8074; EGFR, #4267; GRP78, #3177; HER3, #4754; PARP, #9532; PDIA1, #3501; XBP1s, #12782], from Santa Cruz Biotechnology (Santa Cruz, CA) [Actin, sc-47778; AGR2/3, sc-376653; AGR3, sc-390940; ERO1-a, sc-100805; and ERp44, sc-393687], or from Rockland Immunochemicals, Inc. (Limerick, PA), Streptavidin-Alkaline Phosphatase conjugated (SA-AP), S000-05.
To assess protein disulfide bond-mediated oligomerization, cells were treated with DDAs for 24 h in 10% FBS-DMEM. Cells were subsequently scraped directly into the media and pelleted by centrifugation. Cells were extracted directly into boiling 2×-SDS-Sample Buffer containing 100 mM NEM and boiled for 10 min. Samples were sonicated, followed by centrifugation for 20 min at room temperature. Samples were subsequently analyzed by SDS-PAGE and immunoblot.

## CO[C@H]1C[C@@H]2CS(=O)(=O)SC[C@H]2C[C@@H]1OC [dMtcyDTDO, dimethoxy-tcyDTDO]
5 μM, 24 h, FIG. 4F upper
  ERAP1 levels in the culture medium: dramatically increased
5 μM, 24 h, N=3, FIG. 4F lower
  ERAP1 secretion, statistical analysis: induced ERAP1 secretion in a statistically significant manner
24 h, FIG. 4B
  Cellular ERAP1 levels, immunoblot: decreased cellular ERAP1 levels
FIG. 4C
  Cellular ERAP1 levels, quantitation across four experiments: decreased ERAP1 levels and ERp44 binding to client proteins in a statistically significant manner
